Experimental data from PubChem BioAssay (NCI).
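1) Cells in 96-well plates. 2) Compound, 48 h, 5 concentrations. 3) Linear interpolation between surrounding doses. 4) Unreached endpoint = highest concentration. GI50 is the concentration that inhibits growth by half. TGI denotes the concentration required for complete inhibition of growth.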

Columns and labels:
Assay in all cases: growth of human tumour cells (NCI), 48 h
[1] = test system: NCI-H226 lung
[2] = test system: NCI-H23 lung
[3] = test system: NCI-H460 lung
[4] = test system: NCI-H522 lung
[5] = test system: NCI/ADR-RES ovarian
[6] = test system: OVCAR-3 ovarian
[7] = test system: OVCAR-4 ovarian
[8] = test system: OVCAR-5 ovarian
[9] = test system: OVCAR-8 ovarian
[10] = test system: PC-3 prostate
[11] = test system: RPMI-8226 leukemia
[12] = test system: RXF 393 renal
[13] = test system: SF-268 CNS
[14] = test system: SF-295 CNS
[15] = test system: SF-539 CNS
[16] = test system: SK-MEL-2 melanoma
[17] = test system: SK-MEL-28 melanoma
[18] = test system: SK-MEL-5 melanoma
[19] = test system: SK-OV-3 ovarian
[20] = test system: SN12C renal
[21] = test system: SNB-19 CNS
[22] = test system: SNB-75 CNS
[23] = test system: SR leukemia
[24] = test system: SW-620 colon
[25] = test system: T-47D breast
[26] = test system: TK-10 renal
[27] = test system: U251 CNS
[28] = test system: UACC-257 melanoma
[29] = test system: UACC-62 melanoma
[30] = test system: UO-31 renal

## O=C(CNc1nc(-c2ccccc2)cs1)Nc1cccc([N+](=O)[O-])c1
[1]
  TGI: 444 nM
[2]
  GI50: 72.4 nM
  TGI: 202 nM
[3]
  GI50: 136 nM
  TGI: 616 nM
[4]
  GI50: 129 nM
  TGI: 297 nM
[5]
  GI50: 175 nM
  TGI: 381 nM
[6]
  GI50: 251 nM
  TGI: 708 nM
[7]
  GI50: 223 nM
  TGI: 511 nM
[8]
  GI50: 203 nM
  TGI: 413 nM
[9]
  GI50: 222 nM
  TGI: 568 nM
[10]
  GI50: 217 nM
  TGI: 1860 nM
[11]
  GI50: 291 nM
  TGI: 1230 nM
[12]
  GI50: 128 nM
  TGI: 269 nM
[13]
  GI50: 257 nM
  TGI: 725 nM
[14]
  GI50: 223 nM
  TGI: 519 nM
[15]
  GI50: 180 nM
  TGI: 358 nM
[16]
  GI50: 177 nM
  TGI: 323 nM
[17]
  GI50: 199 nM
  TGI: 379 nM
[18]
  GI50: 166 nM
  TGI: 302 nM
[19]
  GI50: 128 nM
  TGI: 335 nM
[20]
  GI50: 184 nM
  TGI: 469 nM
[21]
  GI50: 206 nM
  TGI: 500 nM
[22]
  GI50: 136 nM
  TGI: 320 nM
[23]
  GI50: 175 nM
  TGI: > 34900 nM
[24]
  GI50: 66.3 nM
  TGI: 914 nM
[25]
  GI50: 218 nM
  TGI: 632 nM
[26]
  GI50: 197 nM
  TGI: 660 nM
[27]
  GI50: 262 nM
  TGI: 927 nM
[28]
  GI50: 256 nM
  TGI: 826 nM
[29]
  GI50: 119 nM
  TGI: 245 nM
[30]
  GI50: 169 nM
  TGI: 444 nM
